Patent publication US8865914B2, “Fluorescent probes for detection of copper” (The Regents of the University of California, priority 2012, dated 2014)

Experiments:
[1] = Spectroscopic fluorescence response to Cu(I) and its pH dependency in HEPES buffer; type: physicochemical; settings: for fluorescence response to Cu(I): 20 mM HEPES, pH 7; for sensitivity of fluorescence to pH changes: physiological pH range
Description: (§1) Millipore water was used to prepare all aqueous solutions. All spectroscopic measurements were performed in 20 mM HEPES buffer, pH 7.0. Absorption spectra were recorded on a Varian Cary 50 spectrophotometer (Walnut Creek, Calif.) and fluorescence spectra were recorded on a Photo Technology International Quanta Master 4 L-format scan spectrofluorometer (Lawrenceville, N.J.) equipped with an LPS-220B 75-W xenon lamp and power supply, A-1010B lamp housing with integrated igniter, switchable 814 photocounting/analog photomultiplier detection unit, and MD5020 motor driver. Samples for absorption and emission measurements were contained in 1-cm×1-cm quartz cuvettes (1.4-mL volume, Starna, Atascadero, Calif.). Metals used in the selectivity assay were derived from their chloride salts or nitrate salts. The binding affinity of Cu^+ to the dyes was measured using thiourea as a competitive ligand to provide a buffered Cu^+ solution. Briefly, a 1-2 μM solution of dye was made in 20 mM HEPES, pH 7.0 and buffered with a known concentration of thiourea from a 500 mM stock in MilliQ H2O. Cu(I) was delivered in the form of [Cu(MeCN)4][PF6] from an acetonitrile stock solution (2 or 10 mM). The maximum acetonitrile concentration was 0.1%; this concentration of acetonitrile is not high enough to effectively compete with the dyes for Cu^+. Stability constants for thiourea binding were taken from the literature: β12=2.0×10^12, β13=2.0×10^14, β14=3.4×10^15. Martell, A. E.; Smith, R. M. Critical Stability Constants; Plenum Press: New York, 1989. The apparent dissociation constant (Kd) was determined using the following equation: (F−Fmin)/(Fmax−Fmin)=[Cu^+]/(Kd+[Cu^+]), where F is the observed fluorescence; Fmax is the fluorescence for the Cu^+:dye complex; Fmin is the fluorescence for the dye; and [Cu^+] is the ‘free’ Cu^+ available for complexation, which was calculated using the stability constants for thiourea and standard competition equilibrium expressions.

[2] = Metal selectivity assay (fluorescence response to various metal ions); type: binding; settings: 20 mM HEPES, pH 7
Description: as §1, with “Briefly, a 1-2 μM solution of dye was made in 20 mM HEPES, pH 7.0 and buffered with a known concentration of thiourea from a 500 mM stock in MilliQ H2O. Cu(I) was delivered in the form of [Cu(MeCN)4][PF6] from an acetonitrile stock solution (2 or 10 mM). The maximum acetonitrile concentration was 0.1%; this concentration of acetonitrile is not high enough to effectively compete with the dyes for Cu^+. Stability constants for thiourea binding were taken from the literature: β12=2.0×10^12, β13=2.0×10^14, β14=3.4×10^15. Martell, A. E.; Smith, R. M. Critical Stability Constants; Plenum Press: New York, 1989.” left out

HEK293 cells = assay: Flow cytometry and confocal live-cell imaging of intracellular Cu^+; type: cell-based, Human; settings: HEK293 cells loaded with 100 μM copper chloride, with or without copper chelator
Description: Cells were grown in the Tissue Culture Facility at the University of California, Berkeley with expert technical assistance from Ann Fischer and Michelle Yasukawa. HEK (Human Embryonic Kidney) 293T cells were cultured in Dulbecco's Modified Eagle Medium (DMEM, Invitrogen, Carlsbad, Calif.) supplemented with 10% Fetal Bovine Serum (FBS, Invitrogen, Carlsbad, Calif.) and glutamine (2 mM). Two days before imaging, cells were passed and plated on 12-mm glass coverslips coated with poly-L-lysine ([…], Sigma, St. Louis, Mo.). For all experiments, solutions of dyes (from 5 mM stocks in DMSO) were made in Dulbecco's Phosphate buffered saline (DPBS, GIBCO) without calcium chloride, magnesium chloride, magnesium sulfate, sodium bicarbonate, or phenol red. For copper treatment, HEK 293T cells were cultured as described above. One day prior to imaging, 100 μM CuCl2 was added to cells from a 100 mM aqueous stock solution. Cells were then incubated at 37° C., 5% CO2. After 10-12 hours, the media was exchanged for DPBS. Flowcytometry were performed with LSRFortessaTM cell analyzer (BD Biosciences) equipping 640 nm red laser and PE-Cy7 band pass filter. Cells were prepared as described above, and then 3-5 μM CS788 or […] […] Confocal fluorescence images were acquired at the Molecular Imaging Center at the University of California, Berkeley. […]

SKH1 mice = assay: Fluorescence imaging experiments in living mice; type: in vivo; settings: for detection of endogenous levels of copper in mice: fluorescence imaging in mice; for detection of changes in copper levels in living mice: mice injected i.p. with copper chloride, copper chelator (ATN-224) or both, then dye
Description: Fluorescence images of mice were acquired using a Xenogen IVIS Spectrum instrument. SKH1 mice were obtained from Charles River Labs. Mice were single or group-housed on a 12:12 light-dark cycle at 22° C. with free access to food and water. SKH1 mice, aged 5-10 weeks, were anesthetized with isoflurane and injected with 1) DPBS (i.p., 100 μL), 2) CuCl2 (i.p., 5 mg/kg in 50 μL of DPBS) and DBPS (i.p., 50 μL), 3) CuCl2 (i.p., 5 mg/kg in 50 μL of DPBS) and ATN-224 (i.p., 5 mg/kg in 50 μL of DPBS), or 4) ATN-224 (i.p., 5 mg/kg in 50 μL of DPBS) and DBPS (i.p., 50 μL). 0-24 hours later, the mice were anesthetized with isoflurane and injected (i.p.) with DPBS (50 μL) or a dye (0.1 mM, 50 μL) and imaged immediately or up to 10 days later. All animal studies were approved and performed according to the guidelines of the Animal Care and Use Committee of the University of California, Berkeley.

| sensitivity of fluorescence to pH changes [1] | Structure (SMILES) | fluorescence response to Cu(I) [1] | selectivity for Cu(I) over other transition metals, alkali metals and alkali earth metals [2] | detection of copper level changes in living cells (HEK293 cells) | detection of endogenous levels of copper in mice (SKH1 mice) | detection of changes in copper levels in living mice (SKH1 mice) | changes in integrated fluorescence from individual mice (SKH1 mice; two-tailed Student's t-test, P<0.05, n=3, except the change between CS790AM and copper, ATN-244, and CS790AM) |
| --- | --- | --- | --- | --- | --- | --- | --- |
| insensitive to pH changes | CCCN1/C(=C/C=C2\CCCC(/C=C/C3=[N+](CCC)c4ccccc4C3(C)C)=C2Oc2ccc(N(CCSCCSCC)CCSCCSCC)cc2)C(C)(C)c2ccccc21.[I-] [CS788] | large fluorescence increase | bind selectively to Cu(I) | increased fluorescence in cells loaded with copper chloride | able to detect endogenous levels of copper | can detect changes in copper levels in mice | – |
| insensitive to pH changes | CSCCCNc1ccc(OC2=C(/C=C/C3=[N+](CCC(=O)OCOC(C)=O)c4ccccc4C3(C)C)CCC/C2=C\C=C2\N(CCC(=O)OCOC(C)=O)c3ccccc3C2(C)C)cc1SCCCSC.[Br-] [CS790AM] | large fluorescence increase | bind selectively to Cu(I) | increased fluorescence in cells loaded with copper chloride | able to detect endogenous levels of copper | can detect changes in copper levels in mice | statistically significant |
